Reference: article PMC9758846, “Dinuclear and mononuclear metal(II) polypyridyl complexes against drug-sensitive and drug-resistant Plasmodium falciparum and their mode of action” (Malaria Journal, 2022)
“And” between values parts separate entries of the source, which are not always exact repeats. Identical values can stand only once.

Experiments:
[1] = target: Pf5202 20S proteasome trypsin-like (T-L) site (Plasmodium falciparum, UniProt Q8I6T3); assay: 20S proteasome inhibition assay using parasite lysate; assay type: biochemical; settings: for IC50: parasite lysate, Boc-LRR-AMC, 30 min; for Factor by which T-L site of Pf5202 is inhibited better than that of Pf3D7: ratio of T-L IC50 values
Protocol: (§1) To harvest P. falciparum parasites, intraerythrocytic Pf3D7 and Pf5202 were collected in trophozoite and early schizont stages. Red blood cells were lysed in 0.15% (w/v) saponin lysis buffer for 10 min at 37 °C. After lysis, the parasite pellet was washed once with PBS buffer by centrifuging at 1600 rpm for 5 min. Saponin lysis buffer was added once again to remove all the red blood cells for 10 min at 37 °C, followed by washing with PBS twice and immediately used or kept at − 80 °C. To prepare parasite lysates for proteasome purification, parasite pellet was resuspended with 100 µl of pre-cooled Pierce™ RIPA buffer. A mild protein extraction method was used to prepare parasite extracts. The resuspended parasites were passed 20 times through a needle with a diameter of 0.4 mm in a syringe on ice to lyse the parasite. After 15 min centrifugation at 13,000 xg at 4 °C, the supernatant was removed. Protein concentration was determined by the Bradford assay. The activities of 3 proteolytic sites were determined by fluorescence assay using fluorogenic peptide substrates (Suc-LLVY-AMC for chymotrypsin-like, Boc-LRR-AMC for trypsin-like and Suc-LLE-AMC for caspase-like) Proteasome activities were determined by monitoring the substrate hydrolysis for 30 min at 37 °C with 340 nm excitation and 465 nm emission wavelength. Activity of each proteolytic site were calculated, and the IC50 values were determined from the non-linear regression analysis. VR23 proteasome inhibitor was used as positive control.

[2] = target: Pf3D7 20S proteasome trypsin-like (T-L) site (Plasmodium falciparum, UniProt Q8I6T3); assay: as above; assay type: biochemical; settings: Boc-LRR-AMC, 30 min
Protocol: as §1

[3] = tested on: Pf5202; assay: Intracellular ROS level using DCFH-DA; assay type: cell-based, Plasmodium falciparum
Protocol: (§2) After incubation, packed cells were washed with phosphate buffer saline (PBS) solution. […] The data was expressed as fold change between amount of ROS produced by treated P. falciparum against untreated P. falciparum. Normalization was done with the percentage of parasite viability obtained at each condition. Hydrogen peroxide was used as positive control.

[4] = tested on: Pf3D7; assay: Intracellular ROS level using DCFH-DA; assay type: cell-based, Plasmodium falciparum
Protocol: as §2

[5] = tested on: Plasmodium falciparum 3D7 (Pf3D7); assay: In vitro anti-malarial activity using SYBR Green I nucleic acid dye; assay type: cell-based; settings: 72 h incubation; read-out: IC50 of Pf3D7
Protocol: (§3) The drug-sensitive strain of P. falciparum 3D7 (Pf3D7) was obtained from the Department of Science, Monash University, Malaysia and cultured as previously described. The artemisinin-resistant strain of P. falciparum IPC5202 (Pf5202) was obtained from BEI Resources and cultured as mentioned in the product sheet. Both strains were maintained in sealed flask at 37 °C in a humidified atmosphere of 5% O2, 5% CO2 and 90% N2. All buffer stock solutions for biological assays were autoclaved at 121 °C for 15 min.
(§4) Previously reported anti-malarial assay was used with slight modification using 1% parasitaemia (ring-stage) and 5% haematocrit treated with test compounds at increasing concentration and incubated for 72 h at 37 °C [21–23]. After the incubation, the assay was terminated by freeze/thaw cycle (− 80 °C overnight before thawing for 2 h) before the addition of lysis buffer containing SYBR Green I dye into each well and mixed thoroughly using the belly dancer for 30 min in the dark. Chloroquine diphosphate salt and artemisinin were used as standard drugs. The fluorescence signal was quantified at 485 nm excitation wavelength and 528 nm emission wavelength. IC50 values of each test compound was determined from a dose response curve by non-linear regression analysis.

[6] = tested on: Plasmodium falciparum IPC5202 (Pf5202); assay: as above; assay type: cell-based; settings: 72 h incubation; read-out: IC50 of Pf5202
Protocol: as §3, §4

[7] = tested on: B+ blood red blood cells (RBC); assay: In vitro haemolytic assay; assay type: cell-based, human; settings: 72 h, B+ blood
Protocol: Fresh B+ blood was washed with RPMI1640 medium containing of 30 µg/mL gentamicin (Gibco) and centrifuged at 1000 xg for 10 min three times. The percentage of haemolysis was determined spectroscopically using 5% haematocrit containing test compound at increasing concentration and incubated for 72 h at 37 °C [19, 20]. Untreated blood acted as negative control while blood treated with sterile distilled water acted as positive control (for 100% haemolysis).

[8] = PNDA assay of •OH radicals from reaction with H2O2; settings: 30 µM compound with excess H2O2
Protocol: A previously reported spectrometric assay using PNDA was used to quantify the amount of reactive oxygen species (ROS), viz. •OH radicals, produced by the reaction of metal(II) complexes with hydrogen peroxide in borate buffer at pH 7.5 [24–26]. The percentage of PNDA bleaching and the concentration of •OH produced were determined.

[9] = tested on: Pf3D7; assay: Nuclear morphology study by Hoechst staining; assay type: cell-based, Plasmodium falciparum; settings: Pf3D7-infected RBC; 72 h; 0.2-25 µM
Protocol: Detections of haemolytic and apoptotic morphological features were examined on Giemsa-stained thin blood smear. The parasite was then visualised with oil immersion (100 × magnification) using upright brightfield microscope. Another thin blood smear was prepared, fixed with methanol, stained in 10 µg/mL of Hoechst 33,258 stain, and kept in the dark for 30 min at room temperature. A cover slip was applied, and the nuclear morphological examination was then visualized with at 100 × magnification with oil by fluorescence microscope using DAPI filter.
The morphological features of apoptosis of P. falciparum can be indicated by chromosome condensation and fragmentation of the P. falciparum nuclei in the non-nuclear RBC cells. The condensed chromosomes would be stained bright blue. The pRBC cells were treated with (1) and (3) respectively for 72 h, and the resultant pRBC were visualized and photographed at 100 × magnification with oil immersion. Typical images were enlarged to look at single cells and are depicted in Fig. 9 for Pf3D7 and Fig. 10 for Pf5202. […] The nuclei of P. falciparum trophozoites in pRBC were observed under brightfield microscope as dots, and they were stained brighter blue which increased in fluorescence intensity with increasing concentration of copper(II) complexes of (1) and (3) from 0.2, 1, 5 to 25 µM compared to the untreated pRBC.

Pf5202 20S proteasome trypsin-like (T-L) site, sequence (Q8I6T3 entry or part of it): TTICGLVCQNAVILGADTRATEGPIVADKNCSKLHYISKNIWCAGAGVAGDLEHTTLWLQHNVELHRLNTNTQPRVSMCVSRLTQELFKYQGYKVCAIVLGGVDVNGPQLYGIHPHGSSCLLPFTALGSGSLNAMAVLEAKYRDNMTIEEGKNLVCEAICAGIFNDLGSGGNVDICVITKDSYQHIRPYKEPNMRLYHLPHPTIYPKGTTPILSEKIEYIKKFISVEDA
Pf3D7 20S proteasome trypsin-like (T-L) site, sequence (Q8I6T3 entry or part of it): as above

| Molecule | IC50 [1] | Factor by which T-L site of Pf5202 is inhibited better than that of Pf3D7 [1] | IC50 [2] | fold change in ROS ([3]; 24 h, 0.2 µM) | fold change in ROS ([3]; 48 h, 0.2 µM) | fold change in ROS ([3]; 48 h, 1.0 µM) | fold change in ROS ([3]; 48 h, 5.0 µM) | fold change in ROS ([3]; 48 h, 25.0 µM) | fold change in ROS ([3]; 72 h, 5.0 µM) | fold change in ROS ([4]; 24 h, 0.2 µM) | fold change in ROS ([4]; 24 h, 1.0 µM) | fold change in ROS ([4]; 24 h, 5.0 µM) | fold change in ROS ([4]; 24 h, 25.0 µM) | fold change in ROS ([4]; 48 h, 0.2 µM) | fold change in ROS ([4]; 48 h, 1.0 µM) | fold change in ROS ([4]; 48 h, 5.0 µM) | fold change in ROS ([4]; 48 h, 25.0 µM) | fold change in ROS ([4]; 72 h, 0.2 µM) | IC50 [5] | IC50 [6] | also measured |
| --- | --- | --- | --- | --- | --- | --- | --- | --- | --- | --- | --- | --- | --- | --- | --- | --- | --- | --- | --- | --- | --- |
| [Cu(phen)(NO3)(H2O)-4,4′-bipy-Cu(phen)(NO3)(H2O)](NO3)2 [Complex 3] | 1.72 ± 0.13 µM | about 1.5 × | 2.64 ± 0.35 µM | 0.04 ± 0.33 fold | 0.52 ± 0.60 fold | 0.66 ± 0.50 fold | 2.53 ± 0.85 fold | 3.39 ± 0.66 fold | 8.43 ± 0.60 fold | 1.76 ± 0.47 fold | 1.13 ± 0.56 fold | 2.30 ± 0.86 fold | 5.36 ± 0.30 fold | 1.20 ± 0.64 fold | 1.28 ± 0.31 fold | 3.80 ± 1.18 fold | 5.46 ± 0.25 fold | 1.49 ± 0.10 fold | 0.9 ± 0.12 µM | 2.2 µM and 2.21 µM | fold change in ROS ([4]; 72 h, 1.0 µM): 1.77 ± 0.24 fold; fold change in ROS ([4]; 72 h, 5.0 µM): 1.68 ± 0.41 fold; fold change in ROS ([4]; 72 h, 25.0 µM): 2.74 ± 0.24 fold; Percentage of haemolysis (haemolytic index, HI) ([7]; 1 µM): 35%; Percentage of haemolysis (haemolytic index, HI) ([7]; 5 µM): 96%; Percentage of haemolysis (haemolytic index, HI) ([7]; 25 µM): 36%; Concentration of •OH radical ([8]; 2 h): 21.13 ± 0.41 µM; Concentration of •OH radical ([8]; 4 h): 22.16 ± 0.36 µM; Concentration of •OH radical ([8]; 24 h): 23.51 ± 1.09 µM; Concentration of •OH radical ([8]; 48 h): 21.29 ± 1.67 µM; Concentration of •OH radical ([8]; 72 h): 18.89 ± 1.45 µM; Type of cell death by nuclear morphology (Hoechst) [9]: underwent apoptosis |
| O.O=[N+]([O-])[O-].O=[N+]([O-])[O-].[Cu+2].c1cnc2c(c1)ccc1cccnc12.c1cnc2c(c1)ccc1cccnc12 [Complex 1, [Cu(phen)2](NO3)2·H2O] | 1.62 ± 0.3 µM | about 1.5 × | 2.39 ± 0.13 µM | 1.04 ± 0.03 fold | 0.32 ± 0.02 fold | 0.33 ± 0.05 fold | 0.72 ± 0.12 fold | 0.52 ± 0.26 fold | 1.69 ± 0.22 fold | 1.44 ± 0.10 fold | 1.54 ± 0.26 fold | 2.28 ± 0.25 fold | 7.59 ± 0.46 fold | 2.45 ± 0.41 fold | 3.20 ± 0.19 fold | 4.54 ± 0.52 fold | 6.83 ± 0.83 fold | 0.00 ± 0.10 fold | 3.51 ± 0.47 µM | 17.9 ± 2.73 µM | fold change in ROS ([3]; 24 h, 1.0 µM): 0.86 ± 0.04 fold; fold change in ROS ([3]; 24 h, 5.0 µM): 0.59 ± 0.02 fold; fold change in ROS ([3]; 24 h, 25.0 µM): 0.04 ± 0.03 fold; fold change in ROS ([3]; 72 h, 0.2 µM): 1.09 ± 0.07 fold; fold change in ROS ([3]; 72 h, 1.0 µM): 1.33 ± 0.41 fold; Percentage of haemolysis (haemolytic index, HI) ([7]; 1 µM): 4%; Percentage of haemolysis (haemolytic index, HI) ([7]; 5 µM): 80%; Percentage of haemolysis (haemolytic index, HI) ([7]; 25 µM): 43%; Concentration of •OH radical ([8]; 2 h): 32.20 ± 2.93 µM; Concentration of •OH radical ([8]; 4 h): 34.36 ± 2.62 µM; Concentration of •OH radical ([8]; 24 h): 35.43 ± 1.22 µM; Concentration of •OH radical ([8]; 48 h): 32.19 ± 0.52 µM; Concentration of •OH radical ([8]; 72 h): 28.96 ± 0.38 µM; Type of cell death by nuclear morphology (Hoechst) [9]: underwent apoptosis |
